Reference: PubChem BioAssay (NCI)
Values joined by “and” are separate entries in the source; they are usually repeats but may differ in a detail not shown here. Identical values can stand only once.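 Dose response: 5 concentrations. Exposure: 48 h. Format: 96-well plates. Endpoint: linear interpolation; highest concentration if not reached. GI50 marks 50% less growth. Definition used: TGI = concentration required for complete inhibition of growth.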

Legend:
Assay in all cases: NCI tumour cell line growth inhibition, 48 h
786-0 renal = test system: 786-0 renal
A498 renal = test system: A498 renal
A549 NSCLC = test system: A549 NSCLC
ACHN renal = test system: ACHN renal
BT-549 breast = test system: BT-549 breast
CAKI-1 renal = test system: CAKI-1 renal
CCRF-CEM leukemia = test system: CCRF-CEM leukemia
COLO 205 colon = test system: COLO 205 colon
DU-145 prostate = test system: DU-145 prostate
EKVX NSCLC = test system: EKVX NSCLC
HCC-2998 colon = test system: HCC-2998 colon
HCT-116 colon = test system: HCT-116 colon
HCT-15 colon = test system: HCT-15 colon
HL-60(TB) leukemia = test system: HL-60(TB) leukemia
HOP-62 NSCLC = test system: HOP-62 NSCLC
HOP-92 NSCLC = test system: HOP-92 NSCLC
HS 578T breast = test system: HS 578T breast
HT29 colon = test system: HT29 colon
IGROV1 ovarian = test system: IGROV1 ovarian
K-562 leukemia = test system: K-562 leukemia
KM12 colon = test system: KM12 colon
LOX IMVI melanoma = test system: LOX IMVI melanoma
M14 melanoma = test system: M14 melanoma
MALME-3M melanoma = test system: MALME-3M melanoma
MCF7 breast = test system: MCF7 breast
MDA-MB-231 breast = test system: MDA-MB-231 breast
MDA-MB-435 = test system: MDA-MB-435
MOLT-4 leukemia = test system: MOLT-4 leukemia
NCI-H226 lung = test system: NCI-H226 lung
NCI-H23 lung = test system: NCI-H23 lung
NCI-H460 lung = test system: NCI-H460 lung
NCI-H522 lung = test system: NCI-H522 lung
NCI/ADR-RES ovarian = test system: NCI/ADR-RES ovarian
OVCAR-3 ovarian = test system: OVCAR-3 ovarian
OVCAR-4 ovarian = test system: OVCAR-4 ovarian
OVCAR-5 ovarian = test system: OVCAR-5 ovarian
OVCAR-8 ovarian = test system: OVCAR-8 ovarian
PC-3 prostate = test system: PC-3 prostate
RPMI-8226 leukemia = test system: RPMI-8226 leukemia
RXF 393 renal = test system: RXF 393 renal
SF-268 CNS = test system: SF-268 CNS
SF-295 CNS = test system: SF-295 CNS
SF-539 CNS = test system: SF-539 CNS
SK-MEL-2 melanoma = test system: SK-MEL-2 melanoma
SK-MEL-28 melanoma = test system: SK-MEL-28 melanoma
SK-MEL-5 melanoma = test system: SK-MEL-5 melanoma
SK-OV-3 ovarian = test system: SK-OV-3 ovarian
SN12C renal = test system: SN12C renal
SNB-19 CNS = test system: SNB-19 CNS
SNB-75 CNS = test system: SNB-75 CNS
SW-620 colon = test system: SW-620 colon
T-47D breast = test system: T-47D breast
TK-10 renal = test system: TK-10 renal
U251 CNS = test system: U251 CNS
UACC-257 melanoma = test system: UACC-257 melanoma
UACC-62 melanoma = test system: UACC-62 melanoma
UO-31 renal = test system: UO-31 renal

## C1=C/COCc2cc(ccc2OCCN2CCCC2)Nc2nccc(n2)-c2cccc(c2)COC/1
786-0 renal
  GI50: 1280 nM and 1400 nM
  TGI: 3.14 µM and 2.88 µM
A498 renal
  GI50: 1250 nM and 1310 nM
  TGI: 2.7 µM and 3.98 µM
A549 NSCLC
  GI50: 1060 nM and 1140 nM
  TGI: 3 µM and 3.38 µM
ACHN renal
  GI50: 394 nM and 486 nM
  TGI: 2.76 µM and 3.68 µM
BT-549 breast
  GI50: 2150 nM and 2300 nM
  TGI: 5.02 µM and 4.87 µM
CAKI-1 renal
  GI50: 443 nM and 463 nM
  TGI: 2040 nM and 2250 nM
CCRF-CEM leukemia
  GI50: 652 nM and 1080 nM
  TGI: 11.5 µM and 6.62 µM
COLO 205 colon
  GI50: 443 nM and 643 nM
  TGI: 1840 nM and 1850 nM
DU-145 prostate
  GI50: 433 nM and 749 nM
  TGI: 11.2 µM and 3.66 µM
EKVX NSCLC
  GI50: 1720 nM and 1760 nM
  TGI: 8.83 µM and 5.74 µM
HCC-2998 colon
  GI50: 1180 nM and 1280 nM
  TGI: 3.19 µM and 3.1 µM
HCT-116 colon
  GI50: 457 nM and 498 nM
  TGI: 2390 nM and 1780 nM
HCT-15 colon
  GI50: 350 nM and 558 nM
  TGI: 2.3 µM and 6.84 µM
HL-60(TB) leukemia
  GI50: 181 nM and 522 nM
  TGI: 887 nM and 2150 nM
HOP-62 NSCLC
  GI50: 1110 nM and 1360 nM
  TGI: 4.39 µM and 3.23 µM
HOP-92 NSCLC
  GI50: 1200 nM and 624 nM
  TGI: 6.38 µM and 3.15 µM
HS 578T breast
  GI50: 1290 nM and 1680 nM
  TGI: 4.47 µM and 5.56 µM
HT29 colon
  GI50: 481 nM and 542 nM
  TGI: 2450 nM and 2640 nM
IGROV1 ovarian
  GI50: 498 nM and 552 nM
  TGI: 3.02 µM and 3.55 µM
K-562 leukemia
  GI50: 639 nM and 1180 nM
  TGI: 4.05 µM and 4.51 µM
KM12 colon
  GI50: 149 nM and 224 nM
  TGI: 1400 nM and 1570 nM
LOX IMVI melanoma
  GI50: 370 nM and 580 nM
  TGI: 1580 nM and 2170 nM
M14 melanoma
  GI50: 669 nM and 997 nM
  TGI: 2460 nM and 2430 nM
MALME-3M melanoma
  GI50: 680 nM and 1210 nM
  TGI: 2190 nM and 2890 nM
MCF7 breast
  GI50: 353 nM
  TGI: 1540 nM
MDA-MB-231 breast
  GI50: 1170 nM and 798 nM
  TGI: 3.13 µM and 2.92 µM
MDA-MB-435
  GI50: 582 nM
  TGI: 1990 nM and 2030 nM
MOLT-4 leukemia
  GI50: 369 nM and 689 nM
  TGI: 2.54 µM and 4.09 µM
NCI-H226 lung
  GI50: 376 nM and 1280 nM
  TGI: 1820 nM and 2730 nM
NCI-H23 lung
  GI50: 628 nM and 1140 nM
  TGI: 2360 nM and 3210 nM
NCI-H460 lung
  GI50: 847 nM and 1080 nM
  TGI: 2750 nM and 3060 nM
NCI-H522 lung
  GI50: 1750 nM and 1440 nM
  TGI: 3.75 µM and 3.4 µM
NCI/ADR-RES ovarian
  GI50: 1090 nM and 1760 nM
  TGI: 4.33 µM and 6.24 µM
OVCAR-3 ovarian
  GI50: 849 nM and 1310 nM
  TGI: 2850 nM and 2890 nM
OVCAR-4 ovarian
  GI50: 1550 nM and 1370 nM
  TGI: 4.51 µM and 3.21 µM
OVCAR-5 ovarian
  GI50: 356 nM and 717 nM
  TGI: 2360 nM and 2780 nM
OVCAR-8 ovarian
  GI50: 1280 nM and 1840 nM
  TGI: 4.31 µM and 8.03 µM
PC-3 prostate
  GI50: 620 nM and 1010 nM
  TGI: 3.17 µM and 3.93 µM
RPMI-8226 leukemia
  GI50: 1370 nM and 1910 nM
  TGI: 4.64 µM and 5.84 µM
RXF 393 renal
  GI50: 278 nM and 339 nM
  TGI: 784 nM and 1120 nM
SF-268 CNS
  GI50: 648 nM and 1050 nM
  TGI: 2560 nM and 2820 nM
SF-295 CNS
  GI50: 1580 nM and 1980 nM
  TGI: 3.34 µM and 4.29 µM
SF-539 CNS
  GI50: 1470 nM and 1800 nM
  TGI: 3 µM and 3.32 µM
SK-MEL-2 melanoma
  GI50: 1550 nM and 1430 nM
  TGI: 3.57 µM and 3.22 µM
SK-MEL-28 melanoma
  GI50: 1290 nM and 1150 nM
  TGI: 2860 nM and 2430 nM
SK-MEL-5 melanoma
  GI50: 672 nM
  TGI: 1820 nM
SK-OV-3 ovarian
  GI50: 1450 nM and 1190 nM
  TGI: 3280 nM and 2580 nM
SN12C renal
  GI50: 587 nM and 586 nM
  TGI: 2620 nM and 2940 nM
SNB-19 CNS
  GI50: 1340 nM and 1850 nM
  TGI: 5.6 µM and 8.47 µM
SNB-75 CNS
  GI50: 1080 nM and 1140 nM
  TGI: 2440 nM and 2600 nM
SW-620 colon
  GI50: 489 nM and 927 nM
  TGI: 2.59 µM and 3.69 µM
T-47D breast
  GI50: 509 nM and 949 nM
  TGI: 3.03 µM and 3.78 µM
TK-10 renal
  GI50: 1580 nM and 1090 nM
  TGI: 3.67 µM and 3.84 µM
U251 CNS
  GI50: 1120 nM and 1270 nM
  TGI: 2630 nM and 3140 nM
UACC-257 melanoma
  GI50: 1650 nM and 1480 nM
  TGI: 3.25 µM and 2.99 µM
UACC-62 melanoma
  GI50: 641 nM and 1300 nM
  TGI: 2120 nM and 2730 nM
UO-31 renal
  GI50: 366 nM and 758 nM
  TGI: 2020 nM and 3200 nM
